Consider 28 molecules from patent US20260327224A1, “SUBSTITUTED PYRIDOTRIAZOLE COMPOUND, AND PREPARATION METHOD THEREFOR AND USE THEREOF” (ORIGIANT PHARMACEUTICAL CO., LTD., priority 2023, published 2026).

Test [1] addresses T1, RIPK1 kinase (Homo sapiens, UniProt Q13546).
T1 construct: Eurofins
T1 sequence (Q13546 1-671): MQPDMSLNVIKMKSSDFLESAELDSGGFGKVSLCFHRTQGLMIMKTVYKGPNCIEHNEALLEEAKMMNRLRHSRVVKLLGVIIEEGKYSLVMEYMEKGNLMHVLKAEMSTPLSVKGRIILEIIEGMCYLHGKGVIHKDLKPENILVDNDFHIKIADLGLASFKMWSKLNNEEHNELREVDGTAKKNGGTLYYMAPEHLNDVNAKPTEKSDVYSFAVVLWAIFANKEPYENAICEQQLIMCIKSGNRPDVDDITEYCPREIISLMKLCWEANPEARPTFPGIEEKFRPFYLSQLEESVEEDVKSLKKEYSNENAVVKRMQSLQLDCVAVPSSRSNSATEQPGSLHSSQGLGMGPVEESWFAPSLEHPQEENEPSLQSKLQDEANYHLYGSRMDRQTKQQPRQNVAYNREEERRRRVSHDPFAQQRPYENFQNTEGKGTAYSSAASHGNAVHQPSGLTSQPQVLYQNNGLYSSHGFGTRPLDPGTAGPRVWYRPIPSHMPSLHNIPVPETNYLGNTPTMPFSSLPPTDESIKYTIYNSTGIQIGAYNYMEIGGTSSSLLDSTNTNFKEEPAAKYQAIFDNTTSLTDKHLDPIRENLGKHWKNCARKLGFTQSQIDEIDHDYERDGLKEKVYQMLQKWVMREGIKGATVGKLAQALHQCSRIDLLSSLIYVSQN
The test is described as follows: In vitro RIPK1 kinase assay (Eurofins Kinase Profiler). The test is classed as biochemical. Conditions: Inhibitory Activity Against RIPK1 Kinase.
Description: In Vitro RIPK1 Kinase Assay:
This assay was completed using the Kinase Profiler service provided by Eurofins. The experimental method was as follows: The small molecule compound to be tested (0.001-10 M) and the protein kinase to be tested were incubated with a buffer containing a substrate, 10 mM magnesium acetate, and [γ-^33P-ATP]. The reaction was initiated by adding a Mg\ATPmix. After incubation at room temperature for a period of time, a 3% phosphate solution was added to the buffer to terminate the reaction. Subsequently, 10 μL of the reaction mixture was quantitatively pipetted and dropped onto P30 filter paper. The paper was washed three times with 75 mM phosphate solution and once with methanol. After drying, scintillation fluid was added for scinticounting. The inhibitory activity of the compound was expressed as the half-maximal inhibitory concentration (IC50). The IC50 values were derived by fitting the inhibition rates corresponding to the respective concentration gradients.

In test [2] the test system is HT-29 cells (colon cancer cells). As to the kind of experiment: In vitro assay for protection of HT-29 cells from necroptosis (TNFα/Smac mimetic/Z-VAD-FMK, CCK-8). In kind it is cell-based. Conditions: Homo sapiens, Protective Activity Against Necroptosis, TNFα/Smac mimetic/Z-VAD-FMK induced, 24 h. In short, it runs like this: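 Cells seeded overnight received compound in triplicate, then were induced with TNFα/Smac mimetic/Z-VAD-FMK for 24 h. Viability was read by CCK-8 absorbance at 495 nm after 1-3 h; protection rate normalized to solvent and medium-only controls, EC50 from fitted curve.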

In test [1], `C[C@H](NC(=O)c1cn(C)c2ccc(-c3ccn4nc(NC(=O)CN5CCOCC5(C)C)nc4c3)cc12)c1ccc(F)cc1` [Compound 32] came in with an IC50 of 10 to 100 nM. In test [2], the EC50 was < 1 nM.
As for `C[C@H](NC(=O)c1cn(C)c2ccc(-c3ccn4nc(NC(=O)Cn5cncn5)nc4c3)cc12)c1ccc(F)cc1` [Compound 57], the EC50 in test [2] lay in the range of 10 to 100 nM.
Still for that read-out and setting: for `C[C@H](NC(=O)c1cn(C)c2ccc(-c3ccn4nc(NC(=O)CN5CC[C@H](CO)C5)nc4c3)cc12)c1ccc(F)cc1` [Compound 61] the value was 1 to 10 nM; for `Cn1cc(C2=NC(c3ccc(F)cc3)CO2)c2cc(-c3ccn4nc(NC(=O)C5CC5)nc4c3)ccc21` (centres unmarked) [Compound 212], 10 to 100 nM; for `CC(c1ccc(F)cc1)n1cnc(-c2cn(C)c3ccc(-c4ccn5nc(NC(=O)C6CC6F)nc5c4)cc23)n1` (centres unmarked) [Compound 209], 100 to 1000 nM.
On the same count and under the same terms, for `CN1CC[C@@H](C(=O)Nc2nc3cc(-c4ccc5c(c4)c(C(=O)N[C@@H](CF)c4ccc(F)cc4)cn5C)ccn3n2)C1` [Compound 100] the value was < 1 nM; for `C[C@H](NC(=O)c1cn(C)c2ccc(-c3ccn4nc(NC(=O)[C@H]5CCCO5)nc4c3)cc12)c1cccc(F)c1` [Compound 119], < 1 nM.
Same read-out and setting: under `C[C@H](NC(=O)c1cn(C)c2ccc(-c3ccn4nc(NC(=O)CN5CCOCC5)nc4c3)cc12)c1ccc(F)cc1` [Compound 75] stands < 1 nM.
In the case of `C[C@H](NC(=O)c1cn(C)c2ccc(-c3ccn4nc(N5CCOCC5)nc4c3)cc12)c1ccc(F)cc1` [Compound 219], in test [2], the EC50 lay within 1 to 10 nM.
On the same count and under the same terms, under `Cn1nc(C(=O)N[C@@H](CF)c2ccc(F)cc2)c2cc(-c3ccn4nc(NC(=O)N5CCOCC5)nc4c3)ccc21` [Compound 189] stands < 1 nM; under `Cn1cc(C(=O)N[C@H]2CCCc3ccc(F)cc32)c2cc(-c3ccn4nc(NC(=O)[C@H]5CCCO5)nc4c3)ccc21` [Compound 146], 10 to 100 nM; under `C[C@H](NC(=O)c1cn(C)c2ccc(-c3ccn4nc(NC(=O)CN5CCCOCC5)nc4c3)cc12)c1ccc(F)cc1` [Compound 30], < 1 nM.
On the same count and under the same terms, under `Cn1cc(C(=O)Nc2nc3cc(-c4ccc5c(c4)c(C(=O)N4N=CCC4c4ccc(F)cc4)cn5C)ccn3n2)cn1` (centres unmarked) [Compound 171] stands 1 to 10 nM; under `Cn1cc(C(=O)N2CC(F)CC2c2ccc(F)cc2)c2cc(-c3ccn4nc(NC(=O)C5CCCO5)nc4c3)ccc21` (centres unmarked) [Compound 157], < 1 nM; under `Cn1cc(C(=O)N[C@H](c2ccc(F)cc2)C(F)F)c2cc(-c3ccn4nc(NC(=O)C5CC5)nc4c3)ccc21` [Compound 161], < 1 nM.
With `C[C@H](NC(=O)c1cn(C)c2ccc(-c3ccn4nc(NC(=O)CN5C[C@H]6C[C@@H]5CO6)nc4c3)cc12)c1ccc(F)cc1` [Compound 39], the EC50 in test [2] was < 1 nM.
Same read-out and setting: under `C[C@H](NC(=O)c1cn(C)c2ccc(-c3ccn4nc(NC(=O)CN5CCOC[C@@H]5CO)nc4c3)cc12)c1ccc(F)cc1` [Compound 35] stands < 1 nM; under `C[C@H](NC(=O)c1cn(C)c2ccc(-c3ccn4nc(NC(=O)CN5CC(O)CC5=O)nc4c3)cc12)c1ccc(F)cc1` (stereo in doubt) [Compound 3], 10 to 100 nM.
As to `Cn1cc(C(=O)N[C@H]2CCCc3cc(F)ccc32)c2cc(-c3ccn4nc(NC(=O)[C@H]5CCCO5)nc4c3)ccc21` [Compound 137], the EC50 in test [2] is 10 to 100 nM.
Same read-out and setting: for `CC(C)NCC(=O)Nc1nc2cc(-c3ccc4c(c3)c(C(=O)N[C@@H](C)c3ccc(F)cc3)cn4C)ccn2n1` [Compound 67] the value was < 1 nM; for `COC1CCN(CC(=O)Nc2nc3cc(-c4ccc5c(c4)c(C(=O)N[C@@H](C)c4ccc(F)cc4)cn5C)ccn3n2)C1` (some centres unmarked) [Compound 19], < 1 nM; for `Cn1cc(C(=O)N[C@@H](CF)c2ccc(F)cc2)c2cc(-c3ccn4nc(NC(=O)C5CCOC5)nc4c3)ccc21` (some centres unmarked) [Compound 109], 1 to 10 nM.
On the same count and under the same terms, under `C[C@H](NC(=O)c1cn(C)c2ccc(-c3ccn4nc(NC(=O)c5ccnc(F)c5)nc4c3)cc12)c1ccc(F)cc1` [Compound 115] stands < 1 nM; under `COCCn1cc(C(=O)N[C@@H](CF)c2ccc(F)cc2)c2cc(-c3ccn4nc(NC(=O)CC#N)nc4c3)ccc21` [Compound 215], 10 to 100 nM; under `C[C@H](NC(=O)c1cn(C)c2ccc(-c3ccn4nc(NC(=O)[C@H]5CCCO5)nc4c3)cc12)c1ccc(F)cc1` [Compound 117], < 1 nM.
Still for that read-out and setting: for `C[C@H](NC(=O)c1cn(C)c2ccc(-c3ccn4nc(NC(=O)CN5CCN(C)CC5)nc4c3)cc12)c1ccc(F)cc1` [Compound 51] the value was < 1 nM.
As for `Cn1cc(C(=O)N[C@@H](CF)c2ccc(F)cc2)c2cc(-c3ccn4nc(NC(=O)N5CCOCC5)nc4c3)ccc21` [Compound 103], in test [2], the EC50 was < 1 nM.
Still for that read-out and setting: under `C[C@H](NC(=O)c1cn(C)c2ccc(-c3ccn4nc(NC(=O)c5cnn(C)c5)nc4c3)cc12)C(C)(C)C` [Compound 91] stands 1000 to 10000 nM.

As usually defined, the IC50 is the midpoint of a concentration-inhibition curve. Higher therefore signals weaker potency in that assay. One may read the EC50 as the concentration at which the effect is half-maximal.
